Experimental data published in ChEMBL document CHEMBL1136964, “Nicotinic agonist binding site mapped by methionine- and tyrosine-scanning coupled with azidochloropyridinyl photoaffinity labeling” (J Med Chem, 2009).
pKd: −log10 of the molar value.

Key:
Assay type in all cases: cell-based
HEK293S [1] = assay: Binding affinity to Aplysia californica AchBP I118M, M116L mutant expressed in HEK293S cells assessed as specific photoincorporation at 46 pmol by scintillation counting
HEK293S [2] = assay: Binding affinity to Aplysia californica AchBP M116L mutant expressed in HEK293S cells assessed as specific photoincorporation at 46 pmol by scintillation counting
HEK293S [3] = assay: Binding affinity to Aplysia californica AchBP S114M, M116L, Y195F mutant expressed in HEK293S cells assessed as specific photoincorporation at 46 pmol by scintillation counting relative to wild type
HEK293S [4] = assay: Binding affinity to Aplysia californica AchBP A107M, M116L, Y195F mutant expressed in HEK293S cells assessed as specific photoincorporation at 46 pmol by scintillation counting
HEK293S [5] = assay: Binding affinity to Aplysia californica AchBP S114M, M116L, Y195F mutant expressed in HEK293S cells assessed as specific photoincorporation at 46 pmol by scintillation counting
[6] = Binding affinity to Aplysia californica AchBP I118M mutant expressed in HEK293S cells by scintillation proximity assay
[7] = Binding affinity to Aplysia californica AchBP M116Y mutant expressed in HEK293S cells by scintillation proximity assay
HEK293S [8] = assay: Binding affinity to Aplysia californica AchBP V108M, M116L mutant expressed in HEK293S cells assessed as specific photoincorporation at 46 pmol by scintillation counting
HEK293S [9] = assay: Binding affinity to Aplysia californica AchBP I106M, M116L mutant expressed in HEK293S cells assessed as specific photoincorporation at 46 pmol by scintillation counting relative to wild type
HEK293S [10] = assay: Binding affinity to Aplysia californica AchBP A107M, M116L, Y195F mutant expressed in HEK293S cells assessed as specific photoincorporation at 46 pmol by scintillation counting relative to wild type
[11] = Binding affinity to Aplysia californica AchBP S114M, M116L, Y195F mutant expressed in HEK293S cells by scintillation proximity assay
HEK293S [12] = assay: Binding affinity to Aplysia californica AchBP M116Y, Y195F mutant expressed in HEK293S cells assessed as specific photoincorporation at 46 pmol by scintillation counting relative to wild type
HEK293S [13] = assay: Binding affinity to Aplysia californica AchBP S114M, M116L mutant expressed in HEK293S cells assessed as specific photoincorporation at 46 pmol by scintillation counting relative to wild type
[14] = Binding affinity to Aplysia californica AchBP M116L mutant expressed in HEK293S cells by scintillation proximity assay
[15] = Binding affinity to Aplysia californica AchBP S114M mutant expressed in HEK293S cells by scintillation proximity assay
HEK293S [16] = assay: Binding affinity to Aplysia californica AchBP M116Y mutant expressed in HEK293S cells assessed as specific photoincorporation at 46 pmol by scintillation counting relative to wild type
[17] = Binding affinity to Aplysia californica AchBP I118M, M116L mutant expressed in HEK293S cells by scintillation proximity assay
HEK293S [18] = assay: Binding affinity to Aplysia californica AchBP V108M mutant expressed in HEK293S cells assessed as specific photoincorporation at 46 pmol by scintillation counting relative to wild type
HEK293S [19] = assay: Binding affinity to Aplysia californica AchBP M116L mutant expressed in HEK293S cells assessed as specific photoincorporation at 46 pmol by scintillation counting relative to wild type
HEK293S [20] = assay: Binding affinity to Aplysia californica AchBP A107M, M116L mutant expressed in HEK293S cells assessed as specific photoincorporation at 46 pmol by scintillation counting relative to wild type
[21] = Binding affinity to Aplysia californica AchBP A107M mutant expressed in HEK293S cells by scintillation proximity assay
[22] = Binding affinity to Aplysia californica AchBP Y195F mutant expressed in HEK293S cells by scintillation proximity assay
HEK293S [23] = assay: Binding affinity to Aplysia californica AchBP I118M, M116L, Y195F mutant expressed in HEK293S cells assessed as specific photoincorporation at 46 pmol by scintillation counting relative to wild type
[24] = Binding affinity to Aplysia californica AchBP M116L,Y195F mutant expressed in HEK293S cells by scintillation proximity assay
[25] = Binding affinity to Aplysia californica AchBP A107M, M116L, Y195F mutant expressed in HEK293S cells by scintillation proximity assay
HEK293S [26] = assay: Binding affinity to Aplysia californica AchBP V108M, M116L, Y195F mutant expressed in HEK293S cells assessed as specific photoincorporation at 46 pmol by scintillation counting relative to wild type
[27] = Binding affinity to Aplysia californica AchBP V108M mutant expressed in HEK293S cells by scintillation proximity assay
[28] = Binding affinity to wild type Aplysia californica AchBP expressed in HEK293S cells by scintillation proximity assay
HEK293S [29] = assay: Binding affinity to Aplysia californica AchBP V108M, M116L, Y195F mutant expressed in HEK293S cells assessed as specific photoincorporation at 46 pmol by scintillation counting
HEK293S [30] = assay: Binding affinity to Aplysia californica AchBP A107M mutant expressed in HEK293S cells assessed as specific photoincorporation at 46 pmol by scintillation counting relative to wild type
HEK293S [31] = assay: Binding affinity to Aplysia californica AchBP M116L,Y195F mutant expressed in HEK293S cells assessed as specific photoincorporation at 46 pmol by scintillation counting relative to wild type
[32] = Binding affinity to Aplysia californica AchBP V108M, M116L mutant expressed in HEK293S cells by scintillation proximity assay
[33] = Binding affinity to Aplysia californica AchBP V108M, M116L, Y195F mutant expressed in HEK293S cells by scintillation proximity assay
HEK293S [34] = assay: Binding affinity to Aplysia californica AchBP M116Y mutant expressed in HEK293S cells assessed as specific photoincorporation at 46 pmol by scintillation counting
HEK293S [35] = assay: Binding affinity to Aplysia californica AchBP M116Y, Y195F mutant expressed in HEK293S cells assessed as specific photoincorporation at 46 pmol by scintillation counting
[36] = Binding affinity to Aplysia californica AchBP S114M, M116L mutant expressed in HEK293S cells by scintillation proximity assay
HEK293S [37] = assay: Binding affinity to Aplysia californica AchBP I106M, M116L, Y195F mutant expressed in HEK293S cells assessed as specific photoincorporation at 46 pmol by scintillation counting relative to wild type
HEK293S [38] = assay: Binding affinity to wild type Aplysia californica AchBP expressed in HEK293S cells assessed as specific photoincorporation at 46 pmol by scintillation counting

SMILES: Clc1ccc(C2CC3CCC2N3)cn1 (racemic) [EPIBATIDINE]
- Activity (HEK293S [1]): 16%
- Activity (HEK293S [2]): 35%
- Activity (HEK293S [3]): 13%
- Activity (HEK293S [4]): 3.7%
- Activity (HEK293S [5]): 3.9%
- pKd [6]: 8.00
- pKd [7]: 7.24
- Activity (HEK293S [8]): 8.1%
- Activity (HEK293S [9]): 90%
- Activity (HEK293S [10]): 13%
- pKd [11]: 7.62
- Activity (HEK293S [12]): 30%
- Activity (HEK293S [13]): 66%
- pKd [14]: 8.05
- pKd [15]: 7.80
- Activity (HEK293S [16]): 59%
- pKd [17]: 8.30
- Activity (HEK293S [18]): 33%
- Activity (HEK293S [19]): 121%
- Activity (HEK293S [20]): 100%
- pKd [21]: 8.00
- pKd [22]: 7.68
- Activity (HEK293S [23]): 16%
- pKd [24]: 7.66
- pKd [25]: 7.60
- Activity (HEK293S [26]): 0%
- pKd [27]: 8.12
- pKd [28]: 8.07
- Activity (HEK293S [29]): 0%
- Activity (HEK293S [30]): 93%
- Activity (HEK293S [31]): 6.9%
- pKd [32]: 8.54
- pKd [33]: 8.54
- Activity (HEK293S [34]): 17%
- Activity (HEK293S [35]): 8.7%
- pKd [36]: 7.92
- Activity (HEK293S [37]): 13%
- Activity (HEK293S [38]): 29%
